For data set [1] the following is noted: cited from earlier work. The text has this:
Aggregates begin to form above a particular concentration, which can be interpreted as the monomer solubility, cs. This concentration can be measured, for example, by following the scattered light intensity as a function of dilution of a sample with an initial concentration c > cs.[13] For this purpose, solutions of the peptides at 1 wt % were gradually diluted in order to determine at which concentration the light scattering signal reached the solvent level, which is a good indication of the monomer solubility. With this method, monomer solubilities of 2 mM and 7 μM in water were determined f ...

Data set [2] is described as follows: Monomer solubility (cs) from scattered light intensity on dilution. It counts as physicochemical. As to the method:
Dynamic light scattering (DLS) experiments were performed with an ALV/DLS/SLS-5022F goniometer system with an ALV-7004 correlator at a scattering angle of 90°. The laser source was a 22 mW He–Ne laser with a wavelength of 632.8 nm. The samples were placed in 5 mm glass tubes, kept at 25 °C, and the intensity autocorrelation functions were collected over runs of 300 s, using two avalanche photodiode detectors operating in the pseudo-cross-correlational mode. Light scattering experiments were also performed using a modulated three-dimensional light scattering instrument (LS Instruments GmbH, Switzerland), implementing a laser with a wavelength of 660 nm and two avalanche photodiodes. […] The experimental intensity correlation functions g^(2)(τ) were converted to C(τ) = (g^(2)(τ) – 1)/β = |g^(1)(τ)|^2,[35] where β is an instrumental constant, close to unity, and g^(1)(τ) is the correlation function of the electric field, which was fitted using the cumulant expansion to obtain an average diffusion coefficient.[36] Fitting was performed with an in-house MATLAB script.
Aggregates begin to form above a particular concentration, which can be interpreted as the monomer solubility, cs. This concentration can be measured, for example, by following the scattered light intensity as a function of dilution of a sample with an initial concentration c > cs.[13] For this purpose, solutions of the peptides at 1 wt % were gradually diluted in order to determine at which concentration the light scattering signal reached the solvent level, which is a good indication of the monomer solubility. […] For A8K, the monomer solubilities of about 10 μM were obtained, which means approximately 2 orders of magnitude smaller compared to that in water.

Data set [3] can be described thus: Visual observation of gel-like (arrested) state. It counts as physicochemical. As to the method:
Previous SAXS experiments on the peptides in water[13],[17] have shown that this concentration could be considered dilute enough not to manifest any effects of interaggregate interactions in the scattering profiles. The first observation made was that the peptide samples in MeOH and DMF were more viscous than the corresponding samples in water prepared at similar concentrations and presented highly viscous (gel-like) states after 5-12 h from solubilization (Figure 2).

For data set [4] the following is noted: cited from earlier work. The text has this:
Table 1 Some Physicochemical Properties of the Three Solvents in Which the Self-Assembly of the Peptides Was Investigated | column: H2O; MeOH; DMF
The source holds these as a separate data set.

Data set [5] concerns the molecule itself. The data set can be described thus: light scattering intensity on dilution; peptide in N,N-dimethylformamide, 1 wt % solution gradually diluted, mean count rate at 90°; concentration at which the signal reaches the solvent level is taken as monomer solubility.
Experiment in data set [6]: as above
The conditions noted are these: other: light scattering intensity on dilution.

The nature of data set [7]: light scattering intensity on dilution; peptide in methanol, 1 wt % solution gradually diluted, mean count rate at 90°; concentration at which the signal reaches the solvent level is taken as monomer solubility. The conditions noted are these: other: light scattering intensity on dilution.

This is an account of results in article PMC8009514 (Langmuir, 2020).

Read-outs that look alike come from different tables or passages of the source. Ends that are not written are not given here.

For `C[C@H](N)C(=O)N[C@@H](C)C(=O)N[C@@H](C)C(=O)N[C@@H](C)C(=O)N[C@@H](C)C(=O)N[C@@H](C)C(=O)N[C@@H](C)C(=O)N[C@@H](C)C(=O)N[C@@H](C)C(=O)N[C@@H](C)C(=O)N[C@@H](CCCCN)C(=O)O` [A10K], the monomer solubility cs in data set [1] (in water, scattered light intensity on dilution of a sample with c > cs) was 7 µM; in data set [2] (in DMF, 1 wt % TFA-salt solution gradually diluted until light scattering signal reached solvent level, mean count rate at 90°, average of three runs of 100 s), “approximately the same solubilities”; in data set [2] (in MeOH, 1 wt % TFA-salt solution gradually diluted until light scattering signal reached solvent level, mean count rate at 90°, average of three runs of 100 s) it was “approximately the same solubilities”. Further, in data set [3] (samples around 1 wt % in MeOH and DMF), the “time from solubilization to highly viscous (gel-like) state” value was 5 to 12 h.

For `CCCCCCCCCCCCOS(=O)(=O)[O-].[Na+]` [SDS], the CMC of SDS at 25 °C in data set [4] (in DMF) was 14.6 mM; in data set [4] (in H2O) it was 7.8 mM; in data set [4] (in MeOH), 6.9 mM.

For the molecule `CCCCCC` [hexane], the “solubility of hexane at 25 °C” value in data set [4] (in H2O) was 0.0124 g/L; in data set [4] (in MeOH), 604 g/L.

Consider AAAAAAAAK [A8K], for which the monomer solubility cs in data set [1] is 2000 µM; in data set [2], “about 10 μM”. Moreover, in data set [3], the “time from solubilization to highly viscous (gel-like) state” value lay in the range of 5 to 12 h.

B1: A10K amphiphilic model peptide (peptide)
peptide: AAAAAAAAAAK
notes: unprotected N-terminus; 11 residues, 857 g/mol; Designed model peptide; The printed molecular weight (857 g/mol) fits free N- and C-termini; TFA counterions are present; also called AnK (n = 10); source: synthetic peptide; bought: CPC Scientific Inc., trifluoroacetate salt, purity >96%, used without further purification
As to B1, the binding result in data set [5] is listed as “binds”.

B2: A8K amphiphilic model peptide (peptide)
chain: AAAAAAAAK
As for B2, the “monomer solubility cs (concentration above which aggregates form)” value in data set [6] is given as “For A8K, the monomer solubilities of about 10 μM were obtained”; in data set [7] it was “For A8K, the monomer solubilities of about 10 μM were obtained”.
